For one assay, the target named is LEF-4 (Autographa californica nuclear polyhedrosis virus, UniProt P41477). The settings on record: reported value; read-out: Km for ATP; cited from earlier work.
For the next assay, the target named is vaccinia triphosphatase (Vaccinia virus, UniProt P04298). The conditions noted are these: reported value; read-out: Km for ATP; cited from earlier work.
A further assay addresses T1, Hcm1p (Homo sapiens, UniProt O43148).
T1 construct: Δ120 retained 50% of the activity of full-length Hcm1p; His-tag (histidine-rich leader segment, pET16b) (N); made in house; host or cells: Escherichia coli BL21(DE3)
Nature of the assay: Cap methyltransferase activity of recombinant Hcm1p, methylation of cap-labeled poly(A). The assay is classed as biochemical.

The target in the next assay is T2, Mce1(1-210)p (Mus musculus, UniProt O55236).
T2 construct: The N-terminal portion of Mce1p from residues 1-210 is an autonomous RNA triphosphatase domain; made in house; host or cells: bacteria
T2 sequence (O55236 1-210): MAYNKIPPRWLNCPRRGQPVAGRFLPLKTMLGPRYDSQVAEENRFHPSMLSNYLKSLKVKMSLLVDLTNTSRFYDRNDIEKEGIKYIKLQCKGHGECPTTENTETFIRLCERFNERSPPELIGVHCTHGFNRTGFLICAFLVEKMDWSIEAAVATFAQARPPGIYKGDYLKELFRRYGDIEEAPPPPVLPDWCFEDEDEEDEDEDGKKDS
The conditions noted are these: at 0.5 mM divalent cation; 50 mM Tris buffer; cited from earlier work.

Structures are written as SMILES.

T1 sequence (O43148 whole entry): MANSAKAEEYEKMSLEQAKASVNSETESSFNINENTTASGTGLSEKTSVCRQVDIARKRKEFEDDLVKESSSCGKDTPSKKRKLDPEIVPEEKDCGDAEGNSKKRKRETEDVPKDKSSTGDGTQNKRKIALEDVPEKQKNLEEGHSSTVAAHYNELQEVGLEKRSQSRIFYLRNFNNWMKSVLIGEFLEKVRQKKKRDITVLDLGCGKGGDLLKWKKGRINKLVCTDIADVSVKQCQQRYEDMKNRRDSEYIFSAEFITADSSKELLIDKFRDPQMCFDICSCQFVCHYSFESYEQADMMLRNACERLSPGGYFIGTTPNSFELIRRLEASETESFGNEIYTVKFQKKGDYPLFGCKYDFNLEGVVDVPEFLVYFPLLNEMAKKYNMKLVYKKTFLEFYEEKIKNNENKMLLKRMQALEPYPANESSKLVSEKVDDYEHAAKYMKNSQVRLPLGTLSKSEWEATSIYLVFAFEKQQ
Chain of LEF-4 (P41477 whole entry): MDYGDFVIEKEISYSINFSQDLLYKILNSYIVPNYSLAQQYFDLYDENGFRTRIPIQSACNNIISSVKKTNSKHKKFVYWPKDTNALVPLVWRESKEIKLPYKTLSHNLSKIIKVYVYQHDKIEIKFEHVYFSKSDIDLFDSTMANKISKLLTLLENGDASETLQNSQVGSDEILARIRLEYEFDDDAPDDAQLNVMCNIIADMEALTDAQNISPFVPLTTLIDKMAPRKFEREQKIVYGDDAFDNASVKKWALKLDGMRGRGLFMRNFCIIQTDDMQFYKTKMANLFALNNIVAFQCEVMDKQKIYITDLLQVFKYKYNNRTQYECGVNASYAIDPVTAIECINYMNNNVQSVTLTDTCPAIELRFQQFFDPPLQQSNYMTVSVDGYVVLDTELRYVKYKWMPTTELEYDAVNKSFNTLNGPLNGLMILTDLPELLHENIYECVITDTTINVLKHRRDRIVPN

For the molecule `Nc1ncnc2c1ncn2[C@@H]1O[C@H](COP(=O)(O)OP(=O)(O)OP(=O)(O)O)[C@@H](O)[C@H]1O` [ATP], the results for the Km on LEF-4 and on vaccinia triphosphatase were 43 µM and 800 µM, respectively. Turning to `Nc1ncnc2c1ncn2[C@@H]1O[C@H](CSCC[C@H](N)C(=O)O)[C@@H](O)[C@H]1O` [AdoHcy, S-adenosylhomocysteine], the “effect on cap methylation in the presence of AdoMet” value on Hcm1p (500 μM AdoHcy plus 50 μM AdoMet (FIG. 9, lane 4)) is reported as “partially inhibitory”. Consider `C[S+](CC[C@H](N)C(=O)O)C[C@H]1O[C@@H](n2cnc3c(N)ncnc32)[C@H](O)[C@@H]1O` (stereo partly shown) [AdoMet, S-adenosylmethionine], for which the Km at Hcm1p (read-out: AdoMet concentration giving half-maximal activity, cap methylation as a function of AdoMet concentration) is approximately 25 µM. As for `[Cl-].[Cl-].[Mg+2]` [MgCl2], the reduction of methylation result at Hcm1p (1 mM magnesium) was “an order of magnitude”. In addition, the “inhibition of RNA triphosphatase activity” value on Mce1(1-210)p is 75%. For the molecule `[Cl][Mn][Cl]` [MnCl2], the “inhibition of RNA triphosphatase activity” value at Mce1(1-210)p is 75%.

Source of the values: patent US6232070A, “Pharmacological targeting of mRNA cap formation” (priority 1999, dated 2001).
